Patent publication US8633324B2, “Denibulin di-hydrochloride” (Medicinova, Inc., priority 2011, dated 2014)
Counter-ions that a name gives are not always drawn. Like-named read-outs stand apart in the source and are kept apart here.

Experiments:
Type in all cases: physicochemical
[1] = Gravimetric Vapor Sorption (GVS) hygroscopicity; conditions: for Weight change: GVS
From the text: Moreover, neither the mono-hydrochloride salt or the di-hydrochloride salt of MN-029 show any significant change in phase as measured by XRPD analysis of samples subjected to GVS analysis (see FIG. 6).

[2] = Solubility in citrate buffer at different pH values (1M sodium hydroxide added), HPLC; conditions: for solubility: aqueous buffer, thermodynamic from solid, read-out: Solubility (free base equivalent)
Procedure: To investigate the solubility of MN-029 di-hydrochloride in citrate buffer, the di-hydrochloride salt was added in multiple small portions to 10 milliliters of an aqueous solution of citric acid (3.87 mg/ml). When no more solid dissolved, that is, when saturation was achieved, the solution in the vial was allowed to equilibrate for approximately 24 hours with shaking at 25° C. […] The pH of the saturated solution was measured prior to filtration of undissolved solid. The filtrate obtained was equally divided into five vials.
To the filtrate in each of the vials was added different volumes of 1M sodium hydroxide so as to increase the pH of the filtrate to a predetermined pH value. It was observed that the addition of base caused solid to precipitate out of solution. The reaction mixture is allowed to equilibrate with shaking at 25° C., following which the solid residue is filtered and the filtrate obtained is analyzed for presence of dissolved compound by HPLC.

[3] = Solubility as a function of pH in buffers without and with 15% HPBCD; conditions: thermodynamic from solid
Procedure: Buffers were prepared to cover a pH range of 2 to 7. Approximately 5 to 10 milligrams of drug was weighed into an HPLC vial to which 1.00 mL of the appropriate buffer was added. The solutions were vortexed briefly and were then shaken for five days on an orbital shaker. The prolonged shaking was carried out because slow equilibration had been observed during the initial formulation studies with different salt forms of MN-029.
Buffers with 15% HPBCD were prepared from the previous buffers. One and a half grams of HPBCD was weighed into each of several 10 mL volumetric flasks. HPBCD was dissolved in and diluted to volume with the appropriate buffer. 15 to 20 milligrams of MN-029 di-hydrochloride was weighed out into an tared HPLC vial. To the di-hydrochloride salt was added 1.00 mL of each buffer and the solution was vortexed briefly to dissolve the salt. The solutions were placed on an orbital shaker for five days. Solubility results are shown in Table 10, and the pH solubility profile for the drug in the absence of HPBCD is shown in FIG. 8.

[4] = Log P, Log Pion, Log D by potentiometric titration (Sirius GlpKa, octanol:water); conditions: octanol:ionic-strength adjusted water
From the text: Most drugs have an ideal log P value and any deviation from this idealized value results in reduced absorption, slow transport of drug to the site of action and consequently, a decrease in biological activity. Table 8, illustrates the predicted and measured values for partition coefficients of MN-029 di-hydrochloride. The data was collected by potentiometric titration using a Sirius GlpKa instrument using three ratios of octanol:ionic-strength adjusted water to generate Log P, Log Pion and Log D values and the raw data was analyzed using Refinement Pro Software V.1.0. The predicted value of Log P was obtained using ACD V. software and Syracuse KOWWIN V.1.67 softwares.

[5] = Aqueous solubility, 24 hours equilibration in water at 25° C., HPLC, pH and XRPD of residue; conditions: water
Procedure: Briefly, quantitative high performance liquid chromatography (HPLC) was used to determine the aqueous solubility. X-ray powder diffraction spectrometry was also used to characterize the thermodynamic solubility of the mono-hydrochloride and di-hydrochloride salts of MN-029. After a 24 hours equilibration of each salt form in water at 25° C., the residual solid material was separated from the aqueous solution and the pH of the aqueous sample was measured. The XRPD spectrum of the solid residue obtained from the MN-029 di-hydrochloride vial indicated the solid material to be the mono-hydrochloride salt of MN-029. […] Table 4 illustrates the data from aqueous solubility studies of the mono-hydrochloride and di-hydrochloride salts of MN-029.
The suspension was equilibrated at 25° C. for 24 hours then pH was measured. The suspension was filtered and the filtrate was diluted by a factor of 101. Quantization by HPLC with a reference to a standard solution. Different volumes of the standard, diluted, and undiluted solution were injected and solubility was calculated by integration of the peak found at the same time as the principle peak in the standard solution.

[6] = 25° C., equilibration for 24 hours

## COC(=O)Nc1nc2ccc(Sc3ccc(NC(=O)[C@H](C)N)cc3)cc2[nH]1 [MN-029 di-hydrochloride, carbamic acid N-[6-[[4-[[(2S)-2-amino-1-oxopropyl]amino]phenyl]thio]-1H-benzimidazol-2-yl]-methyl ester di-hydrochloride]
[1]; 0% RH to 40% RH
  Weight change: +0.56 % w/w
[1]; 40% RH to 90% RH, listed as A063886, di-hydrochloride
  Weight change: Reversible uptake of +0.86% w/w
[1]; 40% RH to 90% RH, listed as MN029*2HCl, di-hydrochloride
  Weight change: +0.86 % w/w
[1]; 90% RH to 0% RH
  Weight change: −1.45 % w/w
[1]; sample subjected to GVS
  XRPD of residue after GVS: No significant difference
[2]
  fold less soluble at pH of about 5.5 than at pH of about 1.0: approximately 3000 fold
[2]; pH 0.96, 25° C.
  solubility: 2900 µg/mL
[2]; pH 2.03, 25° C.
  solubility: 1600 µg/mL
[2]; pH 3.23, 25° C.
  solubility: 39 µg/mL
[2]; pH 5.57, 25° C.
  solubility: < 1 µg/mL
[3]; aqueous buffer with 15% HPBCD, aqueous with cosolvent or surfactant or cyclodextrin, pH 2 to pH 6.9, in the presence of 15% HPBCD, read-out: solubility across the tested pH range
  solubility at 5 days: > 20000 µg/mL
[3]; aqueous buffer, pH 2, aqueous buffer, Without HPBCD, buffer pH 2.0, final pH 2.10, five days shaking, read-out: MN-029 Solubility
  solubility at 5 days: ~6000 µg/mL
[4]
  Measured LogPion(cation): 0.93
[4]; pH 7.4
  Measured LogD7.4: 2.10
[4]; pH 7.4, read-out: Measured LogD7.4
  logD: 2.1
[4]; read-out: Measured LogP
  logP: 2.64
[5]
  fold more soluble in water than the mono-hydrochloride salt: at least 3 fold
[5]; [6]
  Concentration of filtrate: 2.1 mg/ml of free base
  pH of saturated solution: 1.03
